For 90 molecules, melting point results are on record in a melting point compilation (Tetko et al.; mined from patent text by program, amines drawn as free bases though some values may be those of a salt).

Residues, ends and D or L forms follow the SMILES beside them. *: point of attachment. Tos = Cc1ccc(S(=O)(=O)*)cc1

One may read the melting point as the temperature of the solid-liquid transition. Take `CCOC(=O)c1ccc(NC(=O)C(C)C)c(N)c1`: the melting point is 147 to 149 °C.

Take `Cc1ccc2c(c1)CCN2c1ccccc1C#N`: the melting point lay within 59 to 60 °C. For `Cn1cc(C#N)c([N+](=O)[O-])n1`, the melting point fell in the range of 85 to 87 °C. For `CC1=C(C(=O)O)[C@H](c2cccc([N+](=O)[O-])c2)C(C(=O)OCOC(=O)C(C)(C)C)=C(C)N1`, the melting point lay in the range of 146 to 148 °C. With `COC(=O)C1Oc2ccc(Cl)cc2C(c2ccccc2)(C2CCCCC2)O1` (stereo not given) the figure was 142 °C. With `CC1Cc2ccc([N+](=O)[O-])cc2C=N1` (stereo not given) the figure was 110 to 112 °C; with `CCc1nnc2c(N(CC)CC)nc3cc(Cl)c(Cl)cc3n12`, 147 to 149 °C; with `CC1CC(=O)N(c2ccccc2)c2cc(Cl)ccc2N1` (stereo not given), 167 to 168 °C. Consider `O=C1Nc2cccnc2N(CC#CCN2CCOCC2)c2ccccc21`, for which the melting point came to 168 °C.

`CC(C)C[C@@H](C(=O)N1CCN(C(c2ccc(F)cc2)c2ccc(F)cc2)CC1)N(Cc1ccc(C(C)(C)C)cc1)Cc1ccc(C(C)(C)C)cc1` registered a melting point of 78 to 86 °C. With `COCOc1ccc(-c2ncc3ccc(-c4csc(CN5CCOCC5)c4)nc3n2)cc1` the figure was greater than 268 °C. For the molecule `COc1cc(OC)c(C(=O)Nc2cccc3c2CCN(C)C3)cc1OC`, the melting point was 159 to 160 °C. The same measure for `CC(C)(C)OC(=O)N1CC[C@H](c2ccc(OCC3OCCO3)cc2)[C@@H](O)C1` (racemic): 136 to 137 °C; for `CC(C)c1nc(CCO)n(C)c1Sc1cc(Cl)cc(Cl)c1`: 177 to 178 °C; for `COC(=O)C(O)C(Sc1ccc2ccccc2c1N)c1ccc(OC)cc1` (stereo not given): 132 to 134 °C. As to `COc1ccccc1-c1cccc(-n2cnc3cc(C(O)C#N)ccc32)c1` (stereo not given), the melting point is 116 to 124 °C. With `COC(=O)c1ccc(NC(=N)Nc2nc(-c3ccccc3)cs2)cc1` the figure was 189 to 191 °C; with `Cc1cc(C)nc(S(=O)(=O)Nc2c(Cl)cccc2Cl)n1`, 261 to 263 °C. With `Cc1c(-c2ccc3c(c2)N(C)C(=O)CS3)nc2ccccn12` the figure was 191 °C; with `COc1ccc(S(=O)(=O)n2ccc3ccnc(-c4ccco4)c32)cc1`, 127 to 130 °C; with `OCCN(c1ccccc1)c1ccccc1`, 109 to 110 °C. The same measure for `CC1(c2ccccc2)SC(=S)N(Nc2ccccc2)C1=NO` (stereo not given): 83 to 84 °C; for `CCC1(CCCCN2CCc3sccc3C2)C(=O)Nc2ccc(Br)cc21` (stereo not given): 149 to 151 °C. As to `CC1CC(c2cccc(Cl)c2)=NNC1=O` (stereo not given), the melting point was in the range of 150 to 151 °C. `CC(C)C(c1ccc2ncc(=O)[nH]c2c1)n1ccnc1` (stereo not given): the melting point stood at 246 °C.

For `CCN1c2ccccc2CC1CNC(=N)N` (stereo not given), the melting point is 199 °C. With `CCCCCCCCCC(C)NC(=O)C=C(C)c1cccc([N+](=O)[O-])c1` (stereo not given) the figure was 72.5 to 74 °C; with `Oc1ncn(-c2cccc(F)n2)n1`, 290 °C; with `Cc1c(-c2ncc([N+](=O)[O-])n2C)cnn1-c1ccccc1`, 194 °C. `O=C(Nc1cccc(S(=O)(=O)NC2CC2)c1)c1cnn2c(C(F)(F)F)cc(-c3ccc(Cl)cc3)nc12`: the melting point was found to be 257 °C. The same measure for `CCC(CC)C(NS(=O)(=O)c1cc(Cl)c(Cl)s1)c1ccnn1-c1ccccc1` (stereo not given): 116 to 120 °C; for `Cc1cn(Nc2cccc(Cl)c2)c(=S)n1-c1ccc(Br)cc1`: 220 °C. With `O=C(c1cccnc1)N1CCC(c2ccc(F)cc2)=N1` the figure was 128 to 130 °C; with `O=C1NC(=O)c2cc(Nc3ccc(F)cc3)c(Nc3ccc(F)cc3)cc21`, greater than 220 °C; with `O=S(=O)(c1ccccc1)N1CCC(C(=NCc2ccc(F)cc2)c2ccc(F)cc2)CC1`, 114 to 116 °C.

Take `CC(=O)SCC(Cc1ccccc1)C(=O)Nc1cc(C(=O)O)ccc1CN1CCCC1` (stereo not given): the melting point was 95 to 98 °C. The same measure for `O=c1c2ccccc2oc2c(C3CCCCC3)cccc12`: 122 to 124 °C; for `CC(C)C(=O)NCCOc1ccc([N+](=O)[O-])cc1`: 102 to 103 °C; for `CCC(=O)OCOC(=O)C1=C(C)N(COC)C(C)=C(C(=O)O)[C@@H]1c1cccc([N+](=O)[O-])c1`: 54 to 56 °C. The molecule `O=c1[nH]c2c([nH]c1=O)C(O)c1ccccc1-2` (stereo not given) had a melting point greater than 300 °C. The same measure for `Fc1cccc(F)c1-c1ccc2ncccc2c1`: 112 to 113 °C; for `COC(=O)c1ccc2nc(C(F)(F)F)c(S(C)(=O)=O)nc2c1`: 143 to 144 °C.

Molecule `Cc1cc(Cl)c2c(n1)C(O)CCC2` (stereo not given) gave a melting point of 87 to 90 °C.

As to `CN(C)CCOc1ccc2c(c1)C(c1ccccc1)CC(=O)N2` (stereo not given), the melting point lay within 133 to 135 °C. The same measure for `Nc1ccc(-c2ccc(-c3ccc(N)cc3Cl)o2)c(Cl)c1`: 192 to 193 °C; for `O=C(OCCc1ccc(OCc2ccc(Cl)cc2)cc1)c1cccnc1`: 109 to 110 °C; for `Cc1ccc(S(=O)(=O)N2CCC[C@H]2C(=O)N[C@@H](CC(=O)O)C(=O)O)cc1` (Tos-Pro-Asp-OH): 153 to 155 °C. In the case of `CCCc1c(OCc2ccc(OCC(=O)O)cc2)ccc(C(C)=O)c1O`, the melting point lay within 140 to 142 °C.

`COC(=O)CCc1ccc(O)c([N+](=O)[O-])c1` returned a melting point of 60 to 62 °C. Molecule `Oc1c(F)cc(Cn2c(S)nc3ccccc32)cc1F` returned a melting point of 200 °C. As for `CCOC(=O)Cc1ccc(NC(=O)C(COc2cccc(Cl)c2)NS(=O)(=O)c2ccc(I)cc2)cc1` (racemic), the melting point was in the range of 169 to 170 °C. The same measure for `Cc1cc(N)cc(C)c1C(=O)Cc1ccccc1C(F)(F)F`: 168 °C; for `c1ccc(Oc2noc(-c3ccccc3)n2)cc1`: 62 °C. Take `CC(=O)SCC(C)NS(=O)(=O)c1c(C)cc(C)cc1C` (stereo not given): the melting point fell in the range of 123 to 126 °C. The same measure for `CCOC(=O)C1CN(Cc2ccccc2)C(=O)C(=C2SC=CS2)C1=O` (stereo not given): 127 to 129 °C.

With `CCCc1c(OCCCOc2ccc(-c3csc(=S)[nH]3)c(OC)c2CCC)ccc2c1OC(C(=O)O)CC2` (stereo not given), the melting point fell in the range of 149 to 151 °C.

Turning to `COC1COc2cc(NS(C)(=O)=O)c(Oc3ccccc3)cc2C1=O` (stereo not given), the melting point lay in the range of 139 to 141 °C. The same measure for `O=C1NC(=O)C(Cc2ccc(S(=O)(=O)CCc3ccccc3)cc2)S1` (stereo not given): 201 to 203 °C. `CCOC(=O)c1ccc(NCc2nccnc2OCc2ccccc2)cc1` showed a melting point of 112 °C. The same measure for `COc1c(I)c(OC)c2ccccc2c1C(=O)OCc1ccccc1`: 80 to 83 °C. The same measure for `CCCOC(=O)CCc1cc(S(C)(=O)=O)cc(-c2nc(=O)c3ccc(Cl)cc3s2)n1`: 235 to 236 °C.

`C[C@H](NC(=O)Cc1ccccc1F)C(=O)N[C@@H]1C(=O)Nc2ccccc2O[C@@H]1c1ccccc1` gave a melting point of 115 to 135 °C.

`CC1(c2cccc3c2CCc2ccccc2C3=O)OCCO1` came in with a melting point of 144 to 145 °C.

`C[C@@H]([C@H]1CO1)[C@](O)(Cn1cncn1)c1ccc(F)cc1F` (relative stereo) gave a melting point of 160 to 180 °C. With `CSc1nn(Cc2cccc(C(F)(F)F)c2)c(N)c1C#N` the figure was 142 °C; with `COc1c(OC(C)=O)c(C)c(CCCC(=O)O)c(OC(C)=O)c1OC`, 125 to 127 °C; with `COc1cc(OC)c2nccc(O)c2c1`, 221 to 224 °C.

On to `CCCCCCCCCCCCCCSCc1ccc(C(C)=O)o1`, for which the melting point was 55 to 57 °C. `Cc1cn(-c2cc(NC(=O)c3ccc(C)c(C#Cc4ccc(NC(C)C)nn4)c3)cc(C(F)(F)F)c2)cn1` displayed a melting point of 192 to 194 °C.

Molecule `CC1(C(O)C(c2cccc(Cl)c2)n2ccnc2)COC1` (stereo not given) returned a melting point of 145 to 146 °C. `CCCCCCCCCCCCCCCC(Br)CC(=O)O` (stereo not given) returned a melting point of 47 to 51 °C. In the case of `CCCCOCCOc1ccc(-c2ccc(N3CCCC3)c(C(C)=O)c2)cc1`, the melting point fell in the range of 87 to 88 °C.

Take `CN(C)Cc1ccc(NC(=O)Nc2ccc(Oc3cc(Cl)ncn3)cc2)cc1C(F)(F)F`: the melting point fell in the range of 98 to 105 °C. With `CCCc1cc(N2CCN(c3ccncc3)CC2)ccc1OCCCC(=O)O`, the melting point lay in the range of 207 to 209 °C. The molecule `CCOP(=O)(OCC)C(C)CNC(=O)CCl` (stereo not given) gave a melting point of 93 to 95 °C. Take `N#Cc1ccc(NCc2ccccc2)nc1`: the melting point lay in the range of 133 to 134 °C.

On to `O=C(Nc1ccc(Cl)c(Cl)c1)c1cc(C(F)(F)F)cc([N+](=O)[O-])c1Cl`, for which the melting point stood at 202 °C. With `CC1(C)OC(C=Cc2ccc(Cl)cc2)=CC1=O` the figure was 91 to 92 °C.

`N#CCCn1nnc2cc3c(cc2c1=O)OC1CCCN1C3=O` (stereo not given) displayed a melting point of 184 to 186 °C.

Molecule `O=C(O)c1cc([N+](=O)[O-])cc([N+](=O)[O-])c1Nc1cc(-c2ccccc2)ccc1O` registered a melting point of 215 to 217 °C.

Molecule `C/C(=C(\C#N)C(N)=S)N1CCC(Cc2ccccc2)CC1` gave a melting point of 151 to 154 °C. Molecule `CCOC(=O)C=Cc1ccc2c(c1)c1cc(C=CC(=O)OCC)ccc1n2CC` registered a melting point of 164 to 168 °C.

`CCCCCn1c2ccc(C(=O)NC34CC5CC(CC(C5)C3)C4)cc2c2ccc(OC)cc21` came in with a melting point of 141 to 142 °C. The same measure for `CN(C)n1cc(-c2ccccc2)c(=O)c(-c2ccccc2)c1`: 143 °C. `CSc1nc(N)c(C#N)c(N2CCc3ccccc3CC2)n1` came in with a melting point greater than 200 °C. The same measure for `CCN1C(=O)C(C)(C)CCc2c1ccc(Nc1ncc(Cl)c(Nc3ccccc3C(=O)NC)n1)c2OC`: 226 to 228 °C; for `CCNC(=O)N1Cc2c(-c3ccc(F)cc3)ncn2-c2ccccc21`: 196 to 200 °C. In turn, `COC(=O)c1sc(-c2ccccc2)c(O)c1O` came in with a melting point of 143 to 144 °C. With `C/C(=N\OCCOc1ccc(C(=O)O)c(O)c1)c1ccc(C(C)(C)C)cc1` the figure was 157 to 159 °C; with `C#CCOCC1CCC(COCC#C)CC1` (stereo not given), 56 to 60 °C.
